Data on two molecules can be found in patent US6268181A, “Methods for producing a potentiator of Bacillus pesticidal activity” (Valent BioSciences, Corporation, priority 1998, dated 2001).

One assay relates to Phytophthora medicaginis. The conditions noted are these: cited from earlier work.
For another assay, the system named is Spodoptera exigua. The experiment in a line: Spodoptera exigua micro-bioassay (potentiation of Bt Cry protein by Ia). Format: in vivo. The following applies: for Mortality: after 2 days. How it is done: Activity is monitored by a Spodoptera exigua micro-bioassay, and purity is determined by capillary electrophoresis. […] The trays containing the various samples are air dried. Two to four 2nd or early 3rd instar Spodoptera exigua are added to the wells containing the dried sample. The wells are sealed with mylar poked with holes and are incubated for 2-3 days at 30° C. Degree of stunting and percent mortality are then recorded. Typically, 5 replicate wells are run for each sample.
*Mortality = # insects dead/# total insects after 2 days
.dagger.Stunt score is defined by the average size of the live insect
larvae at the end of the bioassay: 4.0 = untreated control, 3.0 = 75% size
of untreated control, 2.0 = 50% size of untreated control, 1.0 = 25% size
of untreated control, 0.0 = no growth or size unchanged from start of […]

[1] abbreviates: Table II, 120 μg/ml, without Ia.
[2] abbreviates: Table II, 240 μg/ml, without Ia.

For the molecule `NC(=O)NCC(NC(=O)C(O)C(O)C(N)C(O)CC(O)C(N)CO)C(N)=O` (stereo not shown) [zwittermicin A], the infection of alfalfa result in the assay with Phytophthora medicaginis (alfalfa) is reported as “reduces the infection”. Moreover, the “growth of Phytophthora medicaginis” value in the assay on Phytophthora medicaginis (plant pathogen) is reported as “inhibits the growth”.

As for “CryIA(c): Bt crystal delta-endotoxin; truncated in Table I, full-length (130 kDa) in Table II”, the “Stunt Score” value worked out at 1.6 in the assay on Spodoptera exigua (Table II, 0.8 μg/ml, with Ia); 1.0 in the assay on Spodoptera exigua (Table II, 3 μg/ml, with Ia); 0.0 in the assay on Spodoptera exigua (Table II, 15 μg/ml, with Ia); 4.0 with Spodoptera exigua (Table II, 30 μg/ml, without Ia); 2.2 with Spodoptera exigua (Table II, 60 μg/ml, without Ia); 2.2 with Spodoptera exigua (setting [1]). The “Stunt Score” value with Spodoptera exigua (setting [2]) is reported as 0.5; with Spodoptera exigua (truncated Bt protein, OD280 0.0006, with Ia, 4.0 = untreated control, 0.0 = no growth), 1.0; in the assay with Spodoptera exigua (truncated Bt protein, OD280 0.0012, with Ia, 4.0 = untreated control, 0.0 = no growth) it was 1.0; in the assay with Spodoptera exigua (truncated Bt protein, OD280 0.0025, with Ia, 4.0 = untreated control, 0.0 = no growth) it was 2.0; in the assay on Spodoptera exigua (truncated Bt protein, OD280 0.005, with Ia, 4.0 = untreated control, 0.0 = no growth) it was 0.0; with Spodoptera exigua (truncated Bt protein, OD280 0.010, with Ia, 4.0 = untreated control, 0.0 = no growth), 0.2. The “Stunt Score” value in the assay on Spodoptera exigua (truncated Bt protein, OD280 0.020, with Ia, 4.0 = untreated control, 0.0 = no growth) is given as 0.0; in the assay with Spodoptera exigua (truncated Bt protein, OD280 0.020, without Ia, 4.0 = untreated control, 0.0 = no growth), 2.8; in the assay on Spodoptera exigua (truncated Bt protein, OD280 0.040, without Ia, 4.0 = untreated control, 0.0 = no growth), 2.6; with Spodoptera exigua (truncated Bt protein, OD280 0.075, without Ia, 4.0 = untreated control, 0.0 = no growth) it was 3.4. Moreover, the Mortality is 2/5 with Spodoptera exigua (Table II, 0.8 μg/ml, with Ia); 4/5 in the assay on Spodoptera exigua (Table II, 3 μg/ml, with Ia); 4/5 in the assay on Spodoptera exigua (Table II, 15 μg/ml, with Ia); 5/5 in the assay with Spodoptera exigua (Table II, 30 μg/ml, with Ia); 0/5 with Spodoptera exigua (Table II, 30 μg/ml, without Ia); 5/5 in the assay with Spodoptera exigua (Table II, 60 μg/ml, with Ia). Further, the Mortality is listed as 0/5 in the assay with Spodoptera exigua (Table II, 60 μg/ml, without Ia); 0/5 in the assay on Spodoptera exigua (setting [1]); 1/5 with Spodoptera exigua (setting [2]); 1/5 with Spodoptera exigua (truncated Bt protein, OD280 0.0006, with Ia); 0/5 in the assay with Spodoptera exigua (truncated Bt protein, OD280 0.0012, with Ia); 2/5 in the assay with Spodoptera exigua (truncated Bt protein, OD280 0.0025, with Ia). The Mortality is on record as 1/5 with Spodoptera exigua (truncated Bt protein, OD280 0.005, with Ia); 0/5 in the assay with Spodoptera exigua (truncated Bt protein, OD280 0.010, with Ia); 1/5 in the assay on Spodoptera exigua (truncated Bt protein, OD280 0.020, with Ia); 0/5 in the assay with Spodoptera exigua (truncated Bt protein, OD280 0.020, without Ia); 0/5 in the assay on Spodoptera exigua (truncated Bt protein, OD280 0.040, without Ia); 0/5 in the assay on Spodoptera exigua (truncated Bt protein, OD280 0.075, without Ia). Also, the “concentration giving same mortality/stunt score as protein with Ia” value with Spodoptera exigua (protein alone, full-length CryIA(c), CryII, CryIC) was found to be 240 µg/mL. Moreover, in the assay on Spodoptera exigua (truncated CryIA(c), tested alone), the “OD280 giving same stunt score as protein with Ia” value was 0.075 OD280. Besides, the “OD280 giving same stunt score as protein alone” value in the assay on Spodoptera exigua (truncated CryIA(c), with Ia) was 0.0006 OD280. In addition, in the assay on Spodoptera exigua (with Ia, full-length CryIA(c), CryII inclusions, CryIC inclusions), the “concentration giving same mortality/stunt score as protein alone” value was 0.75 µg/mL.
